Laboratory results: article PMC2063130, “Reversal of P-glycoprotein-mediated multidrug resistance by XR9051, a novel diketopiperazine derivative” (British Journal of Cancer, 1998)

Columns and labels:
[1] = molecular target: T1, P-glycoprotein (Cricetulus griseus, UniProt P21448); experiment: displacement of [3H]vinblastine equilibrium binding, rapid filtration; details: read-out: EC50 (the source's name)
T1 construct: gene ABCB1; CHrB30 plasma membranes

[2] = molecular target: T1, P-glycoprotein; experiment: radioligand filtration binding; no specific binding in parental AuxB1 membranes (Kd […] is quoted from earlier work)

T1 sequence (P21448 whole entry): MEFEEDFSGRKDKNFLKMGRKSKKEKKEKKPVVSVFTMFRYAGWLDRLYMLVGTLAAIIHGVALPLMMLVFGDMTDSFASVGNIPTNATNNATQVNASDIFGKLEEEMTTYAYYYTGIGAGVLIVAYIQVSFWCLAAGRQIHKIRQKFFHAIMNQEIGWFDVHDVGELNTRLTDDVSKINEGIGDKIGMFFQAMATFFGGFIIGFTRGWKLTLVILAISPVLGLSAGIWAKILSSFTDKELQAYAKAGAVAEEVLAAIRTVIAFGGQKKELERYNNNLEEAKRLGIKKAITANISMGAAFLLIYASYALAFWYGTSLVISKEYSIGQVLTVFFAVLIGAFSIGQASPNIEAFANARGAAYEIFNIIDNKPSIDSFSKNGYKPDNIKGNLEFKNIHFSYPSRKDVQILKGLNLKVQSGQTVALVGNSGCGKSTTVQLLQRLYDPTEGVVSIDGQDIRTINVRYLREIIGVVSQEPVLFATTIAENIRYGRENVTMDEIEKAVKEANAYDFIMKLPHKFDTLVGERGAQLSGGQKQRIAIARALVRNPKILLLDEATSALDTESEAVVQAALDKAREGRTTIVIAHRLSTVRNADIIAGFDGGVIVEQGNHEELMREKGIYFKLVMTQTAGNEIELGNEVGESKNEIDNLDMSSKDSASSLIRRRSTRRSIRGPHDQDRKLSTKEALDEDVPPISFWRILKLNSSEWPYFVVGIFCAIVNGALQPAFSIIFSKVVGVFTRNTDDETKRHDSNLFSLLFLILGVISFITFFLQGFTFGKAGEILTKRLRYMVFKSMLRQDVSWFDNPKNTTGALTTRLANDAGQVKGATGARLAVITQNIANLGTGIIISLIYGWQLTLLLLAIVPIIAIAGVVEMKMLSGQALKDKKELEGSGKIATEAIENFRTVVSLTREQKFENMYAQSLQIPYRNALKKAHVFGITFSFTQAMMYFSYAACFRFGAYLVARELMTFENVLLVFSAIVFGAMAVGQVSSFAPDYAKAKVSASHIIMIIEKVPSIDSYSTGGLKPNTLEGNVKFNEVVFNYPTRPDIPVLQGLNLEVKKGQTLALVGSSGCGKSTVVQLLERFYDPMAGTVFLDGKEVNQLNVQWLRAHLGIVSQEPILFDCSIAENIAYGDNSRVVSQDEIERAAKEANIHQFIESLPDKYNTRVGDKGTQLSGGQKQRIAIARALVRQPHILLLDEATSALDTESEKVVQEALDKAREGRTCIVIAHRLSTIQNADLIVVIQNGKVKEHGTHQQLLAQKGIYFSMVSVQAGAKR

Structure (SMILES): COc1cc2c(cc1OC)CN(CCc1ccc(NC(=O)c3cccc(/C=c4\[nH]c(=O)/c(=C/c5ccccc5)n(C)c4=O)c3)cc1)CC2 [XR9051, N-(4-(2-(6,7-Dimethoxy-1,2,3,4-tetrahydro-2-isoquinolyl)ethyl)phenyl)-3-((3Z,6Z)-6-benzylidene-1-methyl-2,5-dioxo-3-piperazinylidene) methylbenzamide]
- IC50 [1]: 1.4 nM

Structure (SMILES): CC[C@]1(O)C[C@@H]2CN(CCc3c([nH]c4ccccc34)[C@@](C(=O)OC)(c3cc4c(cc3OC)N(C)[C@H]3[C@@](O)(C(=O)OC)[C@H](OC(C)=O)[C@]5(CC)C=CCN6CC[C@]43[C@@H]65)C2)C1 [vinblastine]
- radioligand filtration binding; no specific binding in parental AuxB1 membranes [2]: A rapid filtration assay was used to determine the equilibrium
